Test results taken from patent US12233057B2, “Small molecules for inhibiting chemokine activity and/or cancer cells growth” (AlonBio Ltd., priority 2015, dated 2025).

Tests used:
various cancer cells = test: 7-ADD staining of various cancer cells (cell cycle / apoptosis); assay type: cell-based; details: 1 μM, 24-hour incubation, all tested cells (FIG. 29)
Experimental: While further studying the activity of BKT300-3-c5, various cancer cells were incubated with 1 μM BKT300-3-c5, and without it (control), and then stained for 7-ADD.

metastasis = details: animal studies; Smith et al. 2004; cited from earlier work
glioblastoma = details: animal studies; Kioi et al. 2010; cited from earlier work
[1] = animal studies; Wilson et al. 2011; cited from earlier work
SDF-1 = test: Migration assay: Jurkat cells towards SDF-1 (Transwell); assay type: cell-based, human; details: for Inhibition of SDF-1/CXCR4 mediated migration of Jurkat cells: 1, 5, 10 and 50 μM (FIGS. 19A-B)
Experimental: (§1) 600 μl of RPMI medium was added to the lower chambers of Transwell® transmigration plates, supplemented with 2 μg/ml of MIP3a, 100 ng/ml of SDF-1 or 10 ng/ml of MCP-1. The tested small molecule was added to the lower chambers at the indicated concentration, except in control samples. The MIP3a, SDF-1 or MCP-1 was incubated with the small molecule for 30 minutes at room temperature before the initiation of the migration assay. Following 30 minutes of incubation 2×10^5 immune cells were added to the upper chambers of the transmigration plates in a total volume of 100 μl. Cells which migrated within 3 hours to the bottom chamber of the Transwell® plates were counted using a FACScalibur™ flow cytometer.
To evaluate migration towards SDF-1, Jurkat cells were re-suspended in RPMI medium containing 1% fetal calf serum (FCS).

U937 cells [2] = test: Cell cycle by 7-AAD assay in U937 cells; assay type: cell-based; details: U937, 24 hours; for Effect on cell cycle: any of the tested concentrations (0.1, 1 and 10 μM)
Experimental: (§2) U937 cells were incubated for 24 hours with RPMI medium 1% FCs in the presence of 0.1, 1, and 10 μM of Compounds A1, A3, B1, D1 and BKT300-3-c5, using DMSO as a solvent.
Cell cycle was measured using the 7-AAD assay.

U937 cells [3] = test: Apoptosis and cell viability by annexin-V/PI assay in U937 cells; assay type: cell-based; details: U937, 24 hours; for Effect on apoptosis: any of the tested concentrations (0.1, 1 and 10 μM); for Concentration at which an effect on apoptosis was observed / Concentration at which an effect on cell viability was observed: tested 0.1, 1 and 10 μM
Experimental: as §2
Apoptosis and cell viability were measured using the annexin-V/PI assay.

MCP-1 = MCP-1 (Homo sapiens, UniProt P13500); test: Migration assay: THP-1 cells towards MCP-1 (Transwell); assay type: cell-based; details: 0.1, 0.5, 1 and 10 μM (FIG. 20B)
Sequence of MCP-1 (P13500 24-99): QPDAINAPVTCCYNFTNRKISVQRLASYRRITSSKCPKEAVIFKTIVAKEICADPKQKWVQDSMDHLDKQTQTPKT
Experimental: as §1
To evaluate migration towards MCP-1, JTHP-1 cells were re-suspended in RPMI medium containing 1% fetal calf serum (FCS).

[4] = tested on: MV4-11 human acute myeloid leukemia cells; test: Cancer cell viability assay, propidium iodide staining (FACS); assay type: cell-based
Experimental: (§3) The cancer cells were incubated in cell medium with 1% fetal calf serum (FCS) at a concentration of 2×10^5 cells/well at a final volume of 250 μl in 96-well plate. The tested small molecule was added to the cells at the indicated concentrations. The cells were incubated for 24 hours and the number of dead and viable cells was then evaluated by fluorescence-activated cell sorting (FACS), using propidium iodide (PI) staining. The IC50 of the small molecule-induced cell death was determined using GraphPad Prism software.
In order to assess the effect of BKT300 on cancer cells viability, the in vitro effect on MV4-11 human acute myeloid leukemia cells was evaluated. The MV4-11 cancer cells were incubated in RPMI cell medium with 1% fetal calf serum (FCS) at a concentration of 2×10^5 cells/well at a final volume of 250 μl in 96-well plate. BKT300 was added to the cells at the indicated concentrations. The cells were incubated for 24 hours and the number of dead and viable cells was then evaluated by fluorescence-activated cell sorting (FACS), using propidium iodide (PI) staining. The IC50 of […] cell death was determined using GraphPad Prism software.

[5] = tested on: MV4-11, U937, REH, THP-1, NB4, PC-3 and B16-F10 cells; test: Cancer cell viability assay (PI staining), comparison with IPI-145 in all tested cell lines; assay type: cell-based; details: 24 hours
Experimental: as §3
The effect of BKT300-3-c5 on the viability of various cancer cells has been tested, as described under the “method” section hereinabove, and compared to the effect of IPI-145.
FIGS. 22A-B, 23A-B, 24A-B and 25A-B present the effect of BKT300-3-c5 and IPI-145 on various leukemic cells: U937, REH, THP-1 and NB4, respectively.
FIG. 26 presents the effect of BKT300-3-c5 and IPI-145 on prostate cancer PC-3 cells.
FIG. 27 presents the effect of BKT300-3-c5 and IPI-145 on melanoma B16-F10 cells.

K562 = test: Inhibition of cell growth in additional cancer cell lines; assay type: cell-based; details: Homo sapiens; 1.0 Micromolar; K562, CML
HL60 = test: as above; assay type: cell-based; details: Homo sapiens, HL-60; 1.0 Micromolar; HL60, AML
RPMI8826 = test: as above; assay type: cell-based; details: 1.0 Micromolar; RPMI8826, Myeloma
SU-DHL-4 = test: as above; assay type: cell-based; details: Homo sapiens; 1.0 Micromolar; SU-DHL-4, DLBCL
SU-DHL-6 = test: as above; assay type: cell-based; details: Homo sapiens; 1.0 Micromolar; SU-DHL-6, DLBCL
Farage = test: as above; assay type: cell-based; details: 1.0 Micromolar, DLBCL
Toledo = test: as above; assay type: cell-based; details: Homo sapiens, 1.0 Micromolar, DLBCL
OVCAR3 = test: as above; assay type: cell-based; details: Homo sapiens, OVCAR-3; 1.0 Micromolar; OVCAR3, Ovarian
SKNBE = test: as above; assay type: cell-based; details: 1.0 Micromolar, Neuroblastoma
H460 = test: as above; assay type: cell-based; details: Homo sapiens, NCI-H460; 1.0 Micromolar; H460, Lung
MV4-11 cells = test: Annexin-V and Propidium Iodide staining of MV4-11 cells; assay type: cell-based, human; details: 1 μM, 24 hours (FIG. 30)
Experimental: In further studies, apoptosis induction by BKT300-3-c5 was established by incubating MV4-11 cells with and without BKT300-3-c5 (1 μM) for 24 hours, followed by staining the cells for Annexin-V and Propidium Iodide (PI).

caspase-3 = test: Cleaved caspase-3 by Western blot and Elisa in AML cell lines NB4, U937 and MV4-11; assay type: cell-based, human; details: 1 μM, 24 hours; NB4, U937 and MV4-11 (FIGS. 31A-C)
Experimental: In still further studies, the role of caspase-3 (CASP3) in the BKT300-3-c5-induced apoptosis of AML cell lines NB4, U937 and MV4-11 was tested. Cells were incubated with BKT300-3-c5 (1 μM) for 24 hours, and were then tested for the presence of cleaved using mAb against human cleaved caspase 3 by Western blot and Elisa assay to caspase-3.

Legionella = details: cited from earlier work
other bacteria = details: Nomura et al., Biol Pharm Bull 2012; cited from earlier work

C[C@H](Nc1ncnc2nc[nH]c12)c1cc2cccc(Cl)c2c(=O)n1-c1ccccc1 [IPI-145, reference compound]
Apoptotic cell death, 7-ADD staining (various cancer cells): does not affect growth arrest nor apoptosis | Growth arrest (cell cycle), 7-ADD staining (various cancer cells): does not affect growth arrest nor apoptosis

c1cc(CN2CCCNCCNCCCNCC2)ccc1CN1CCCNCCNCCCNCC1 [plerixafor]
Effect on metastasis (metastasis): reduce metastasis | Effect on recurrence of glioblastoma (glioblastoma): reduce recurrence of glioblastoma associated with vasculogenesis | Effect on opioid-induced hyperalgesia [1]: counteract opioid-induced hyperalgesia

CCCCCc1cc2cc(O)cc(Oc3c(O)cc(O)c(C(=O)O)c3CCCCC)c2c(=O)o1 [BKT400]
Inhibition of migration of Jurkat cells towards SDF-1 (SDF-1; 1 and 10 μg/ml (FIG. 2C)): inhibit

CCC1C(=O)Nc2c(Oc3ccc(OC)cc3OC)cc(OC)cc2C1=O (stereo not shown) [Compound A3, 8-(2,4-dimethoxyphenoxy)-3-ethyl-6-methoxyquinoline-2,4(1H,3H)-dione]
Effect on cell cycle (U937 cells [2]): no effect | Effect on apoptosis (U937 cells [3]): no effect

CCCCCC1C(=O)Nc2c(Oc3ccc(OC)cc3OC)cc(OC)cc2C1=O (stereo not shown) [BKT300-3-c5, 8-(2,4-dimethoxyphenoxy)-6-methoxy-3-pentylquinoline-2,4(1H,3H)-dione]
Inhibiting SDF-1/CXCR4 mediated migration of Jurkat cells, compared to IPI-145 (SDF-1; 1, 5, 10 and 20 μM (FIG. 20A)): more effective that IPI-145 | Inhibition of SDF-1/CXCR4 mediated migration of Jurkat cells (SDF-1): inhibition | Inhibiting MCP-1 induced migration of THP-1, compared to IPI-145 (MCP-1): more effective that IPI-145 | IC50 ([4]; Homo sapiens, MV4-11, 24 hour-treatment (FIG. 21B), read-out: IC50, viability of MV4-11 AML cells): 850 nM | Reducing the survival of cancer cells, compared to IPI-145 [5]: superior effect compared to IPI-145 | Apoptotic cell death, 7-ADD staining (various cancer cells): induce apoptotic cell death | Growth arrest (cell cycle), 7-ADD staining (various cancer cells): arrest the growth at the G2M phase | inhibition at 1 µM (K562): 71% | inhibition at 1 µM (HL60): 94.9% | inhibition at 1 µM (RPMI8826): 90.6% | inhibition at 1 µM (SU-DHL-4): 34% | inhibition at 1 µM (SU-DHL-6): 50% | inhibition at 1 µM (Farage): 40% | inhibition at 1 µM (Toledo): 4% | inhibition at 1 µM (OVCAR3): 93.7% | inhibition at 1 µM (SKNBE): 73% | inhibition at 1 µM (H460): 78% | Apoptosis induction, percentage of viable MV4-11 cells (MV4-11 cells): reduction in the percentage of viable cells via apoptosis | Cleaved caspase-3 in induced apoptosis (caspase-3): via caspase-3 activation | Concentration at which cell cycle arrest is demonstrated (U937 cells [2]; tested 0.1, 1 and 10 μM): 0.1 µM | Concentration at which an effect on apoptosis was observed (U937 cells [3]): 0.1 µM | Concentration at which an effect on cell viability was observed (U937 cells [3]): 0.1 µM

CCCCCC1C(=O)Nc2c(Oc3ccccc3OC)cc(OC)cc2C1=O (stereo not shown) [Compound D1, 6-methoxy-8-(2-methoxyphenoxy)-3-pentylquinoline-2,4(1H,3H)-dione]
Concentration at which cell cycle arrest is demonstrated (U937 cells [2]; tested 0.1, 1 and 10 μM): 1 µM | Concentration at which an effect on apoptosis was observed (U937 cells [3]): 0.1 µM | Concentration at which an effect on cell viability was observed (U937 cells [3]): 0.1 µM

CCCCCC(=O)Cc1cc(O)cc(O)c1Oc1cc(O)cc2cc(CCCCC)oc(=O)c12 [8-(2,4-dihydroxy-6-(2-oxoheptyl)-phenoxy)-6-hydroxy-3-pentyl-1H-isochromen-1-one]
Antibacterial activity against Legionella (Legionella): potent antibacterial activity | Antibacterial activity against other bacteria (other bacteria): not against other bacteria

CCCCCc1cc(OC)ccc1Oc1cc(OC)cc2c1NC(=O)C(CCCCC)C2=O (stereo not shown) [BKT300-11-a5, 6-methoxy-8-(4-methoxy-2-pentylphenoxy)-3-pentylquinoline-2,4(1H,3H)-dione]
Inhibition of SDF-1/CXCR4 mediated migration of Jurkat cells (SDF-1): inhibition | Effect on the viability of MV4-11 cells ([4]; 1.328, 6.64, 13.28 and 26.56 μM (FIGS. 28A-B)): affect viability

CCCCCC1C(=O)Nc2c(Oc3ccc(OC)cc3)cc(OC)cc2C1=O (stereo not shown) [Compound B1, 6-methoxy-8-(4-methoxyphenoxy)-3-pentylquinoline-2,4(1H,3H)-dione]
Concentration at which cell cycle arrest is demonstrated (U937 cells [2]; tested 0.1, 1 and 10 μM): 10 µM | Concentration at which some effect on cell cycle is already observed (U937 cells [2]; tested 0.1, 1 and 10 μM): 1 µM | Concentration at which an effect on apoptosis was observed (U937 cells [3]): 1 µM | Concentration at which an effect on cell viability was observed (U937 cells [3]): 1 µM

COc1ccc(Oc2cc(OC)cc3c2NC(=O)CC3=O)c(OC)c1 [Compound A1, 8-(2,4-dimethoxyphenoxy)-6-methoxyquinoline-2,4(1H,3H)-dione]
Effect on cell cycle (U937 cells [2]): no effect | Effect on apoptosis (U937 cells [3]): no effect
